ChEMBL document CHEMBL1201862, “PubChem BioAssay data set” (2004)
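Method: 48-hour compound exposure of cells in 96-well plates, five concentrations, linear interpolation of endpoints. The concentration for 50% growth inhibition is given as GI50.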 Active and inactive are the calls of the source. Rule as the data show it: active = GI50 up to about 1.1 µM and inactive = higher. Numbered stars: 1 amine (or outer) side, 2 acyl side, 3 side chain; on linkers, the order of the positions; unused ones are H or OH. Bridge positions count the residues as written; N and C are the ends. Square brackets hold non-standard residues; d marks the D form. Peptide text beside a SMILES is read from it. I, II: the chains in the order shown. Actinocin(9to1) = Cc1c2oc3c(C)ccc(C(=O)[*:1])c3nc-2c(C(=O)[*:2])c(N)c1=O; NMeH = CN[CH](Cc1c[nH]cn1)C(=O)O; Sar = CNCC(=O)O

Tests used:
Assay in all cases: inhibition of tumour cell growth, NCI panel, 48 h
[1] = test system: OVCAR-8
[2] = test system: CCRF-CEM
[3] = test system: SNB-75
[4] = test system: NCI-H23
[5] = test system: MDA-MB-435
[6] = test system: NCI/ADR-RES
[7] = test system: DU-145
[8] = test system: EKVX
[9] = test system: SW-620
[10] = test system: COLO 205
[11] = test system: OVCAR-4
[12] = test system: SK-MEL-28
[13] = test system: SF-539
[14] = test system: TK-10
[15] = test system: UACC-257
[16] = test system: RPMI-8226
[17] = test system: MCF7
[18] = test system: A498
[19] = test system: OVCAR-5

Measured: GI50

c1coc(C2=Nc3cccc4cccc(c34)N2)c1
inactive: [1] 39.3 µM | [2] 32.1 µM | [3] 65.5 µM | [4] 44.8 µM | [5] 50.8 µM | [6] 18.7 µM | [7] > 100 µM | [8] 55.2 µM | [9] 38.6 µM | [10] 14.8 µM | [11] 29.9 µM | [12] 72.9 µM | [13] 15 µM | [14] > 100 µM | [15] 41.4 µM | [16] 71.8 µM | [17] 24.1 µM

O=c1[nH]c2ccccc2c2oc(-c3ccccc3)nc12
inactive: [1] 22.4 µM | [2] 18.4 µM | [3] 20.2 µM | [4] 65.8 µM | [5] 18.4 µM | [18] 27 µM | [6] > 100 µM | [8] > 100 µM | [9] 22.9 µM | [19] > 100 µM | [10] 18.6 µM | [11] 60.7 µM | [13] 16.7 µM | [14] 54.6 µM | [15] > 100 µM | [16] 27.9 µM | [17] 44.8 µM

CN(C)CCCNc1ccnc2cccc([N+](=O)[O-])c12
inactive: [1] 22 µM | [2] 28.9 µM | [3] 24.1 µM | [4] 5.9 µM | [5] 15.3 µM | [18] 15.5 µM | [7] 29 µM | [8] 13.6 µM | [9] 17.2 µM | [19] 23 µM | [10] 3.73 µM | [11] 6.18 µM | [12] 14.3 µM | [13] 15.2 µM | [14] 15.7 µM | [15] 19.1 µM | [16] 27.3 µM | [17] 10.7 µM

COc1cc2c3c(n(C)c(=O)c2cc1OC)-c1cc2c(cc1/C3=C/CCCCBr)OCO2
inactive: [1] > 100 µM | [2] 1.7 µM | [3] 11.6 µM | [4] 24.8 µM | [18] 19.8 µM | [6] > 100 µM | [8] > 100 µM | [9] 16.1 µM | [19] > 100 µM | [10] > 100 µM | [12] > 100 µM | [14] > 100 µM | [15] > 100 µM | [16] 2.54 µM | [17] 4.73 µM

O=C1N=C(SC(SC2=NC(=O)C3(NN2)c2ccccc2-c2ccccc23)=C(SC2=NC(=O)C3(NN2)c2ccccc2-c2ccccc23)SC2=NC(=O)C3(NN2)c2ccccc2-c2ccccc23)NNC12c1ccccc1-c1ccccc12
inactive: [1] 7.21 µM | [2] 5.21 µM | [3] 7.96 µM | [4] 7.59 µM | [5] > 10 µM | [6] 3.66 µM | [7] > 10 µM | [8] 2.59 µM | [9] > 10 µM | [10] 7.21 µM | [11] 8.07 µM | [12] > 10 µM | [13] > 10 µM | [14] > 10 µM | [15] 5.64 µM | [16] 3.59 µM | [17] 4.27 µM

O=C(NC(Cc1ccccc1)(Cc1ccc(O)cn1)C(=O)O)c1ccccc1 (configuration not stated)
inactive: [1] > 100 µM | [2] 25.4 µM | [3] 69.2 µM | [4] > 100 µM | [5] > 100 µM | [6] > 100 µM | [7] > 100 µM | [8] 55.6 µM | [9] > 100 µM | [19] > 100 µM | [10] 84.7 µM | [11] 98.6 µM | [12] > 100 µM | [13] > 100 µM | [14] > 100 µM | [15] > 100 µM | [16] 49.3 µM

CNc1nc(SC)nc2c1c(N)nn2C
inactive: [1] > 100 µM | [2] > 100 µM | [3] 95.7 µM | [4] > 100 µM | [5] > 100 µM | [18] 99.5 µM | [6] > 100 µM | [7] > 100 µM | [9] > 100 µM | [19] > 100 µM | [10] > 100 µM | [11] > 100 µM | [12] > 100 µM | [14] > 100 µM | [15] > 100 µM | [16] > 100 µM

CCOC(=O)c1ccc(Nc2nc3ccccc3nc2-c2cccs2)cc1
inactive: [1] 93.1 µM | [2] 41.8 µM | [3] 16.8 µM | [4] > 100 µM | [5] 36.9 µM | [6] 35.6 µM | [7] > 100 µM | [8] 35.3 µM | [9] > 10 µM | [19] > 100 µM | [10] 96.6 µM | [12] > 100 µM | [13] > 100 µM | [14] 23.3 µM | [15] 39.8 µM | [16] 62.8 µM | [17] 34 µM

Cc1nc(C(N)=S)sc1C(=O)CC(=O)C(=O)Nc1cccc(Cl)c1C
inactive: [1] > 100 µM | [2] > 100 µM | [3] > 100 µM | [4] > 100 µM | [5] > 100 µM | [18] > 100 µM | [6] > 100 µM | [8] > 100 µM | [9] > 100 µM | [19] > 100 µM | [11] > 100 µM | [12] > 100 µM | [13] > 100 µM | [14] > 100 µM | [15] > 100 µM | [16] > 100 µM | [17] > 100 µM

O=[N+]([O-])c1ccc(-n2nc3ccc4nonc4c3n2)cc1
inactive: [2] > 100 µM | [3] 11.1 µM | [4] 23.7 µM | [5] > 100 µM | [6] 56.1 µM | [7] 79.6 µM | [8] 58.3 µM | [9] > 100 µM | [19] > 100 µM | [10] > 100 µM | [11] 9.08 µM | [12] 46.2 µM | [13] 44.8 µM | [14] 18.4 µM | [15] > 100 µM | [16] > 100 µM | [17] 20.4 µM

CC(NC(=O)Cc1ccccc1)NC(=O)C(C)C(=O)Nc1ccccc1 (configuration not stated)
inactive: [1] 34.8 µM | [3] 24 µM | [4] > 100 µM | [5] > 100 µM | [6] > 100 µM | [7] > 100 µM | [8] > 100 µM | [9] > 100 µM | [19] > 100 µM | [10] > 100 µM | [11] > 100 µM | [13] > 100 µM | [14] 33.3 µM | [15] > 100 µM | [16] > 100 µM | [17] > 100 µM

C#CCOC(=O)C=[N+]=[N-]
inactive: [1] > 10 µM | [2] > 10 µM | [4] > 10 µM | [5] > 10 µM | [18] 6.92 µM | [7] > 10 µM | [8] > 10 µM | [9] > 10 µM | [19] > 10 µM | [12] > 10 µM | [13] > 10 µM | [15] > 10 µM | [16] > 10 µM | [17] > 10 µM

CCOC1CCC2C(CCC(/C=C/c3ccc(O)c4ncccc34)N2C)C1 (configuration not stated)
inactive: [1] 3.53 µM | [2] 4.65 µM | [4] 10.3 µM | [6] > 100 µM | [7] 10.3 µM | [8] 4.98 µM | [9] 7.59 µM | [19] 33.2 µM | [10] 3.56 µM | [12] 29.6 µM | [13] 3.67 µM | [14] 33.2 µM | [16] 25.4 µM | [17] 4.23 µM

O=C(c1ccc2ccccc2c1)C1S(=O)(=O)OCCOS1(=O)=O
inactive: [1] > 100 µM | [2] > 100 µM | [4] > 100 µM | [5] > 100 µM | [6] > 100 µM | [7] > 100 µM | [8] > 100 µM | [19] > 100 µM | [10] > 100 µM | [11] > 100 µM | [12] > 100 µM | [14] > 100 µM | [15] > 100 µM | [16] > 100 µM | [17] > 100 µM

Fc1ccccc1-c1nn2c(C34CC5CC(CC(C5)C3)C4)nnc2s1
inactive: [1] > 100 µM | [2] > 100 µM | [3] > 100 µM | [4] > 100 µM | [5] > 100 µM | [18] > 100 µM | [6] > 100 µM | [7] > 100 µM | [8] > 100 µM | [9] > 100 µM | [19] > 100 µM | [10] > 100 µM | [11] > 100 µM | [12] > 100 µM | [13] > 100 µM | [15] > 100 µM | [16] > 100 µM

Cc1c2oc3c(C)ccc(C(=O)NC4C(=O)NC(C(C)C)C(=O)N5CCCC5C(=O)N(C)CC(=O)N(C)C(Cc5cnc[nH]5)C(=O)OC4C)c3nc-2c(C(=O)NC2C(=O)NC(C(C)C)C(=O)N3CCCC3C(=O)N(C)CC(=O)N(C)C(Cc3cnc[nH]3)C(=O)OC2C)c(N)c1=O (configuration not stated) (I: TVP[Sar][NMeH] / II: TVP[Sar][NMeH]; ester I:1-I:C, II:1-II:C; linker I:N-II:N via Actinocin(9to1); configuration not given here)
inactive: [1] > 100 µM | [2] 59 µM | [3] 66.8 µM | [4] 65.5 µM | [5] 63.4 µM | [18] > 10 µM | [6] > 100 µM | [8] > 100 µM | [9] 27.4 µM | [19] > 100 µM | [10] 31.3 µM | [11] > 100 µM | [12] 39.4 µM | [13] 28.8 µM | [14] > 100 µM | [15] > 100 µM | [16] 31.6 µM | [17] 30.4 µM
